Measurements from patent US20140249135A1, “PIM KINASE INHIBITORS AND METHODS OF THEIR USE” (NOVARTIS AG, priority 2007, published 2014).
pIC50: −log10 of the molar value. Where two headings read alike, the source gives them in different places.

Key:
Pim1 kinase = Pim1 kinase (Homo sapiens, UniProt P11309); assay: Pim1 ATP depletion assay; format: biochemical; details: Pim1 ATP depletion assay; read-out: IC50 (μM) PIM1;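 further: Luciferase-luciferin luminescence readout of residual ATP after PIM1 transfers phosphate to a peptide substrate, 40 µM ATP added, reaction run to roughly half ATP consumption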
Pim3 kinase = Pim3 kinase (Homo sapiens, UniProt Q86V86); assay: Pim3 ATP depletion assay; format: biochemical; details: read-out: IC50 (μM) PIM3
Pim2 kinase = Pim2 kinase (Homo sapiens, UniProt Q9P1W9); assay: Pim2 ATP depletion assay; format: biochemical; details: read-out: IC50 (μM) PIM2;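 further: Luciferase-based luminescent readout of ATP remaining after PIM2 phosphorylates a BAD peptide, final 5 nM enzyme, 4 µM ATP, 10 µM peptide, 2.5% DMSO, run to roughly half ATP consumption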
[1] = target: T1, human full length PKCE enzyme (Homo sapiens, UniProt Q02156); assay: In vitro PKCE assay; format: biochemical; details: 10 nM enzyme, 40 uM peptide substrate, 20 uM ATP, KinaseGlo Plus readout; read-out: PKCε IC50
T1 construct: human full length PKCE enzyme purchased from InVitrogen; purchased InVitrogen
T1 sequence (Q02156 1-737): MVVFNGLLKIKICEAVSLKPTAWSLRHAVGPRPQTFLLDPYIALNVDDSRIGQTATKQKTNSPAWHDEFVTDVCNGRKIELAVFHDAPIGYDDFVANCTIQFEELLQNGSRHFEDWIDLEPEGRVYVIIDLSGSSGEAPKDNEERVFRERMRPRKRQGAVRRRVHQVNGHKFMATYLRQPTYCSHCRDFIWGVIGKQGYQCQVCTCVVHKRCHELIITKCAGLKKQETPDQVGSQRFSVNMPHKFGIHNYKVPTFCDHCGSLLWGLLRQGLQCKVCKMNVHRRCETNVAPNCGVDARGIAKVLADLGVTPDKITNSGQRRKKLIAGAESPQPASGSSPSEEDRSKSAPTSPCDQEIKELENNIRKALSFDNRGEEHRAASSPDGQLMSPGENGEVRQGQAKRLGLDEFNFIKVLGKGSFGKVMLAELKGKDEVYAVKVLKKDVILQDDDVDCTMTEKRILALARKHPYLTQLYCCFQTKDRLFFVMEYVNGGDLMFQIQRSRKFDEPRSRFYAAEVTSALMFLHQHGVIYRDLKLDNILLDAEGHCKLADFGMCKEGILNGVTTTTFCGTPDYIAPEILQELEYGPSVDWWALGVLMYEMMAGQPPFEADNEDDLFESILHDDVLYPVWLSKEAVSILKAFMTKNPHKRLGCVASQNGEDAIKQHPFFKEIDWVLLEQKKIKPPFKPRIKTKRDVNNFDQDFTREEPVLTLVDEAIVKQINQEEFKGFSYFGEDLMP

Flt3 kinase = target: T2, Flt3 kinase (Homo sapiens, UniProt P36888); assay: Flt3 AlphaScreen assay
T2 sequence (P36888 27-993): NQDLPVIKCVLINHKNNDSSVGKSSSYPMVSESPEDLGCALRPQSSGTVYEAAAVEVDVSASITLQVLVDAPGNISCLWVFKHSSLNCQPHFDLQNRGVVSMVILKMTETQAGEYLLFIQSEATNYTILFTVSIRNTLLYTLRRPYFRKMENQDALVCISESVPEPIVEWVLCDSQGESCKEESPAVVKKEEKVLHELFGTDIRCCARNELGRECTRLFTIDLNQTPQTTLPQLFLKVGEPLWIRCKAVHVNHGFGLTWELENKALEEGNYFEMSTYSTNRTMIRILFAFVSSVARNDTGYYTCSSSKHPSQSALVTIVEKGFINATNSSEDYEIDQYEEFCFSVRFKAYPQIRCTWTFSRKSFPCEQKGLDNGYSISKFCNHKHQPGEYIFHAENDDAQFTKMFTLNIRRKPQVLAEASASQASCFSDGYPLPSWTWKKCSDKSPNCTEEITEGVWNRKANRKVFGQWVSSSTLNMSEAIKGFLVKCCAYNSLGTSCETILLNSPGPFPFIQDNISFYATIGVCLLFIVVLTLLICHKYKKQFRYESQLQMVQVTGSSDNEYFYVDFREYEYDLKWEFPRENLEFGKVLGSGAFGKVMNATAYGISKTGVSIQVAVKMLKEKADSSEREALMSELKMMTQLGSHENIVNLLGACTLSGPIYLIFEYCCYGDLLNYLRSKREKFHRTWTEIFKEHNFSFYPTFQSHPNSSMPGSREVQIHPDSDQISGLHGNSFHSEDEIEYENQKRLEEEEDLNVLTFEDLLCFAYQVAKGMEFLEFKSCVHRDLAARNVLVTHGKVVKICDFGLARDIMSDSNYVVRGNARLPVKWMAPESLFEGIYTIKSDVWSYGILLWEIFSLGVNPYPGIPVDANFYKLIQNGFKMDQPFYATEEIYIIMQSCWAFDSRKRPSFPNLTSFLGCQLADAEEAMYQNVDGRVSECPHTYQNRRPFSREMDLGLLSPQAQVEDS

MV4-11 cells = assay: Cell proliferation assay (CellTiter-Glo), MV4-11; format: cell-based; details: Homo sapiens
Protocol: HEL 92.1.7 cells (ATTC No. TIB-180, an erythroleukemia line derived from malignant peripheral blood), MV4-11 cells (ATCC No. CRL-9591, a human acute monocytic leukemia line) and PC3 cells (ATCC No. CRL-1435, a human prostatic adenocarcinoma line) were cultured in RPMI1640 supplemented with 10% FBS, sodium pyruvate and antibiotics. Cells were plated in the same medium at a density of 1000 cells per well into 96 well tissue culture plates, with outside wells vacant, on the day of assay. Test compounds supplied in DMSO were diluted into DMSO at 500 times the desired final concentrations before dilution into culture media to 2 times final concentrations. Equal volumes of 2× compounds were added to the cells in 96 well plates and incubated at 37° C. for 3 days. After 3 days plates were equilibrated to room temperature and equal volume of CellTiter-Glow Reagent (Promega) was added to the culture wells. The plates were agitated briefly and luminescent signal was measured with luminometer.

HEL 92.1.7 cells = assay: Cell proliferation assay (CellTiter-Glo), HEL 92.1.7; format: cell-based; details: Homo sapiens, read-out: EC50 (μM) HEL 92.1.7
Method in brief: (§1)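 Cells in RPMI1640 with 10% FBS were seeded at 1000 cells/well and exposed to compound dilutions from DMSO stocks for 3 days at 37 °C. Viability was read by CellTiter-Glo luminescence. EC50 was derived from percent inhibition relative to DMSO-only and control-compound wells.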

PC3 cells = assay: Cell proliferation assay (CellTiter-Glo), PC3; format: cell-based; details: Homo sapiens, PC-3
Method in brief: as §1

KDR kinase = KDR kinase (Homo sapiens, UniProt P35968); assay: KDR AlphaScreen assay; details: KDR IC50 (μM)
[2] = tested on: MM1.s (human myeloma cell line); assay: Cell proliferation assay (CellTiter-Glo), MM1.s; format: cell-based; details: MM1.s cells, read-out: EC50 (μM) MM1.s
Protocol: (§2) KMS 11 (human myeloma cell line), were cultured in IMDM supplemented with 10% FBS, sodium pyruvate and antibiotics. Cells were plated in the same medium at a density of 2000 cells per well into 96 well tissue culture plates, with outside wells vacant, on the day of assay. MM1.s (human myeloma cell line), were cultured in RPMI1640 supplemented with 10% FBS, sodium pyruvate and antibiotics. Cells were plated in the same medium at a density of 5000 cells per well into 96 well tissue culture plates, with outside wells vacant, on the day of assay.
(§3) Test compounds supplied in DMSO were diluted into DMSO at 500 times the desired final concentrations before dilution into culture media to 2 times final concentrations. Equal volumes of 2× compounds were added to the cells in 96 well plates and incubated at 37° C. for 3 days.
(§4) After 3 days plates were equilibrated to room temperature and equal volume of CellTiter-Glow Reagent (Promega) was added to the culture wells. The plates were agitated briefly and luminescent signal was measured with luminometer. The percent inhibition of the signal seen in cells treated with DMSO alone vs. cells treated with control compound was calculated and used to determine EC50 values (i.e., the concentration of a test compound that is required to obtain 50% of the maximum effect in the cells) for tested compounds, as shown in Example 763.

[3] = tested on: KMS 11 (human myeloma cell line); assay: Cell proliferation assay (CellTiter-Glo), KMS 11; format: cell-based; details: KMS11 cells, read-out: EC50 (μM) KMS11
Protocol: as §2, §3, §4

[4] = cell proliferation, MV4-11 cells, read-out: EC50 (μM) MV-4-11

Chain of Pim2 kinase (Q9P1W9 whole entry): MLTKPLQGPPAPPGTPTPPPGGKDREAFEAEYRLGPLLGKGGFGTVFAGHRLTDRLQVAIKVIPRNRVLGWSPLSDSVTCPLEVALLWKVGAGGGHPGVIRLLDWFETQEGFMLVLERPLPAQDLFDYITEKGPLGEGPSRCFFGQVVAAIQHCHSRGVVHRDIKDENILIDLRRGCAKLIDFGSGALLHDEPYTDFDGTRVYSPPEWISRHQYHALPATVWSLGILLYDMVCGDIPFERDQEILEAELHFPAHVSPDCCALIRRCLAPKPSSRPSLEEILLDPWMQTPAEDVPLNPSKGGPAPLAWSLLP
Chain of Pim1 kinase (P11309 whole entry): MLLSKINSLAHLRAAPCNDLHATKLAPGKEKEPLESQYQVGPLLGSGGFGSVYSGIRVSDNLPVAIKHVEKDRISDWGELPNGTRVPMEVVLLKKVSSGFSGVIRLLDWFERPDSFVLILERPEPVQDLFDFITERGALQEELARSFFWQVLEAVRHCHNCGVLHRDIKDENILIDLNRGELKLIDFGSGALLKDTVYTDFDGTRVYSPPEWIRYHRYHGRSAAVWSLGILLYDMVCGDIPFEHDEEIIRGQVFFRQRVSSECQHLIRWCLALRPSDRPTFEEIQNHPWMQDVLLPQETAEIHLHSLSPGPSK
Chain of KDR kinase (P35968 20-1356): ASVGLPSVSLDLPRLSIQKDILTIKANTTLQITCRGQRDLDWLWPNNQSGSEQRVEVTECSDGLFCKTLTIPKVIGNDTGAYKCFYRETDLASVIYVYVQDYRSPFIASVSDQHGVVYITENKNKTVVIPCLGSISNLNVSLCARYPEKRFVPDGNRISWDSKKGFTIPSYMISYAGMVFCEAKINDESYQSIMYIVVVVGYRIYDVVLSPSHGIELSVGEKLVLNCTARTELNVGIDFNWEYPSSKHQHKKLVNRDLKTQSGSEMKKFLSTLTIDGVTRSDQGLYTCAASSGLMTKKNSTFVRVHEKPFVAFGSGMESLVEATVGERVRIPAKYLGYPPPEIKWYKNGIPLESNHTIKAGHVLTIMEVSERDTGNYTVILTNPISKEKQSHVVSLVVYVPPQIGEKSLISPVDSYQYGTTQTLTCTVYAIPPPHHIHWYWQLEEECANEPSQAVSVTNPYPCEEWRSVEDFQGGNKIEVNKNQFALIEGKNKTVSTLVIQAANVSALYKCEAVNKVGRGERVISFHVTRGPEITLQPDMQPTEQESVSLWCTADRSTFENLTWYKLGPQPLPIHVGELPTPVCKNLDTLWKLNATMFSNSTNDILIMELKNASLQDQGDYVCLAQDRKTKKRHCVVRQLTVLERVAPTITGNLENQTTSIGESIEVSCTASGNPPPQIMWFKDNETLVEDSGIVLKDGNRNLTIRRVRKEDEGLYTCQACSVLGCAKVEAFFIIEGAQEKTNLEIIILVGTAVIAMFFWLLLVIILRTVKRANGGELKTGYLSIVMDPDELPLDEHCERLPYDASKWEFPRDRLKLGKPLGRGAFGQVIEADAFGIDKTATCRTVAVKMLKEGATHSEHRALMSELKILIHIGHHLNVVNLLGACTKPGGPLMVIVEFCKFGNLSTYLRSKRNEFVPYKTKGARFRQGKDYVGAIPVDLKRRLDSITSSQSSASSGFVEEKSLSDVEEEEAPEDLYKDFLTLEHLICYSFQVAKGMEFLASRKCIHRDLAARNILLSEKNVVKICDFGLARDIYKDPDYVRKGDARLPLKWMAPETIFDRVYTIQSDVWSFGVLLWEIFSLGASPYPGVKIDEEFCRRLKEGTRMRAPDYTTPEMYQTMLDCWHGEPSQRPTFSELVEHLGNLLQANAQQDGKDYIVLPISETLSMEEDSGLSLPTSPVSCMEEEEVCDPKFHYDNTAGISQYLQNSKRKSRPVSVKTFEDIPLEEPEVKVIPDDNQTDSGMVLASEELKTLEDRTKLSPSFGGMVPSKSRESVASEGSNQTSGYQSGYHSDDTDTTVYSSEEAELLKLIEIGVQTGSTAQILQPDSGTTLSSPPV

| Structure (SMILES) | IC50 (Pim1 kinase) | IC50 (Pim3 kinase) | IC50 (Pim2 kinase) | pIC50 [1] | pIC50 (Flt3 kinase) | EC50 (MV4-11 cells; MV4-11, read-out: EC50 (μM) MV-4-11) | EC50 (HEL 92.1.7 cells) | EC50 (PC3 cells) | IC50 (KDR kinase) | EC50 [2] | EC50 [3] | EC50 (MV4-11 cells; [4]) |
| --- | --- | --- | --- | --- | --- | --- | --- | --- | --- | --- | --- | --- |
| CN(C)CCN(C)c1ccncc1NC(=O)c1nc(Br)cnc1N [Example 124, 3-amino-6-bromo-N-(4-{[2-(dimethylamino)ethyl]-(methyl)amino}pyridin-3-yl)pyrazine-2-carboxamide] | 1 to 10 µM | 1 to 10 µM | > 25 µM | 4.60 to 5.00 | 4.60 to 5.00 | – | – | – | – | – | – | – |
| Nc1nccnc1C(=O)Nc1cnccc1N1CCCC(N)C1 (stereo not shown) [Example 187, 3-amino-N-[4-(3-aminopiperidin-1-yl)pyridin-3-yl]pyrazine-2-carboxamide] | – | < 1 µM | < 1 µM | > 6.00 | – | < 1 µM | 1 to 5 µM | 1 to 5 µM | > 25 µM | – | – | – |
| CC(C)NC(=O)c1ccc(F)c(-c2ccc(N)c(C(=O)Nc3cnccc3N3CCC[C@H](N)C3)n2)c1 [Example 317, 3-amino-6-(2-fluoro-5-iso-propylcarbamoyl-phenyl)-pyridine-2-carboxylic acid ((S)-3-amino-3,4,5,6-tetra-hydro-2H-[1,4′]bipyridinyl-3′-yl)-amide] | < 1 µM | < 1 µM | < 1 µM | – | – | – | 1 to 5 µM | > 10 µM | – | < 1 µM | 1 to 5 µM | – |
| CN(C)C(=O)c1ccc(F)c(-c2ccc(N)c(C(=O)Nc3cnccc3N3CCC[C@H](N)C3)n2)c1 [Example 328, 3-amino-6-(5-dimethyl-carbamoyl-2-fluoro-phenyl)-pyridine-2-carboxylic acid ((S)-3-amino-3,4,5,6-tetra-hydro-2H-[1,4′]bipyridinyl-3′-yl)-amide] | < 1 µM | < 1 µM | < 1 µM | – | – | – | 1 to 5 µM | – | – | < 1 µM | < 1 µM | – |
| Nc1ccc(-c2c(F)cccc2F)nc1C(=O)Nc1cnccc1N1CCC[C@H](N)C1 [Example 425, 3-amino-6-(2,6-difluoro-phenyl)-pyridine-2-carboxylic acid ((S)-3-amino-3,4,5,6-tetrahydro-2H-[1,4′]bipyridinyl-3′-yl)-amide] | < 1 µM | < 1 µM | < 1 µM | 5.00 to 6.00 | – | – | < 1 µM | 5 to 10 µM | 10 to 25 µM | < 1 µM | < 1 µM | – |
| Nc1ccc(-c2ccccc2Cl)nc1C(=O)Nc1cnccc1N1CCC[C@H](N)C1 [Example 433, 3-amino-6-(2-chloro-phenyl)-pyridine-2-carboxylic acid ((S)-3-amino-3,4,5,6-tetrahydro-2H-[1,4′]bipyridinyl-3′-yl)-amide] | < 1 µM | < 1 µM | < 1 µM | 5.00 to 6.00 | – | – | 1 to 5 µM | – | 10 to 25 µM | – | – | < 1 µM |
| Nc1ccc(-c2ccccc2F)nc1C(=O)Nc1cnccc1N1CCC[C@H](N)C1 [Example 434, 3-amino-6-(2-fluoro-phenyl)-pyridine-2-carboxylic acid ((S)-3-amino-3,4,5,6-tetrahydro-2H-[1,4′]bipyridinyl-3′-yl)-amide] | – | – | – | – | – | – | 1 to 5 µM | – | – | – | – | < 1 µM |
| N[C@H]1CCCN(c2ccncc2NC(=O)c2cccc(-c3c(F)cccc3F)n2)C1 [Example 454, 6-(2,6-Difluoro-phenyl)-pyridine-2-carboxylic acid (3-amino-3,4,5,6-tetrahydro-2H-[1,4′]bi-pyridinyl-3′-yl)-amide] | < 1 µM | < 1 µM | < 1 µM | – | – | – | – | – | 10 to 25 µM | 5 to 10 µM | 1 to 5 µM | – |
| COCCOc1nc(-c2ccc(N)c(C(=O)Nc3cnccc3N3CCC[C@H](N)C3)n2)cnc1N [Example 520, 3-Amino-6-[5-amino-6-(2-methoxy-ethoxy)-pyrazin-2-yl]-pyridine-2-carboxylic acid (3-amino-3,4,5,6-tetrahydro-2H-[1,4′]bipyridinyl-3′-yl)-amide] | < 1 µM | < 1 µM | < 1 µM | – | – | – | – | – | 1 to 10 µM | 5 to 10 µM | 5 to 10 µM | – |
